Source: patent US20240293558A1, “KRAS INHIBITOR CONJUGATES” (Erasca, Inc., priority 2021, published 2024)
Like-named read-outs stand apart in the source and are kept apart here.

How the values were obtained:
Type in all cases: cell-based
WT KRAS = biological target: T1, WT KRAS (Homo sapiens, UniProt P01116); assay: Degradation of KRAS wild type (WT) in HT-29 cells, Western blot; details: HT-29 cell line, after 24 h treatment (FIG. 12)
T1 construct: endogenous in cells; host or cells: HT-29 (ATCC HTB-38)
T1 sequence (P01116 1-188 isoform P01116-2): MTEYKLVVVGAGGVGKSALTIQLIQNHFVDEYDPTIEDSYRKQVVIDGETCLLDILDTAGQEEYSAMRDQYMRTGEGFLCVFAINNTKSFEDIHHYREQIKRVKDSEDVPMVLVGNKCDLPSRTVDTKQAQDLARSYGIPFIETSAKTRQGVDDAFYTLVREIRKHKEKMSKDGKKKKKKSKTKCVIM
Description: This Example illustrates that embodiments of the present application degrade KRAS WT
HT-29 cells (ATCC HTB-38) expressing WT KRAS were grown in McCoy's 5a medium modified (ATCC cat #30-2007) supplemented with 10% fetal bovine serum, and Penicillin/Streptomycin. Cell were plated in 6-well tissue culture plates at a density of 1 million cells/well and allowed to attach for overnight. Diluted compounds were then added in a final concentration of 0.2% DMSO. After 24 hour treatment, the medium was removed, and the plate was washed three times with ice-cold PBS. 50ul of the RIPA cell lysis buffer (ThermoFisher 89901) supplemented with protease inhibitor (Roche 4693116001) and Phosphatase Cocktail A and B inhibitor (Bimake B15002; Bimake Houston TX) was added to each well, the adherent cells were scratched off, and transferred into pre-cold centrifuge tubes. […] The protein concentration of the supernatant was determined with bicinchoninic acid method (BCA) (ThermoFisher 23227). […]
The levels of KRAS protein were determined by Western blotting. […] The signal intensities of bands were quantified by Li-Cor Odyssey CLX.
The KRAS signals were normalized to the GAPDH signal for each lane and percent of DMSO values were calculated to determine the degradation of KRAS upon the compound treatment.

KRAS G12D [1] = biological target: T2, KRAS G12D (Homo sapiens, UniProt P01116, G12D); assay: Degradation of KRas G12D in AsPC-1 cells, Western blot; parameters: endogenous in cells; host or cells: AsPC-1 (ATCC CRL-1682); details: ASPC-1 cell line after 24 h treatment (FIG. 11); read-out: KRAS wild type degradation DC50
T2 sequence (P01116 1-188 isoform P01116-2 G12D): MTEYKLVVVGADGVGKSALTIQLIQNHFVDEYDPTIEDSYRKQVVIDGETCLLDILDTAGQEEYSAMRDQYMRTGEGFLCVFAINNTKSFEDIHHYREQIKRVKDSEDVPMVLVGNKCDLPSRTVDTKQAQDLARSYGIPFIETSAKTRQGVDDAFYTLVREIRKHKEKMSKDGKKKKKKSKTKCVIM

KRAS G12D [2] = biological target: T2, KRAS G12D; assay: as above; parameters: endogenous in cells; host or cells: AsPC-1 (ATCC CRL-1682)
Description: This Example illustrates that the compounds presented herein degrade KRAS G12D.
AsPC-1 cells (ATCC CRL-1682) expressing G12D were grown in RPMI-1640 medium supplemented with 10% fetal bovine serum, and Penicillin/Streptomycin. Cell were plated in 6-well tissue culture plates at a density of 1 million cells/well and allowed to attach for overnight. Diluted compounds were then added in a final concentration of 0.2% DMSO. After 24 hour treatment, the medium was removed, and the plate was washed three times with ice-cold PBS. 50ul of the RIPA cell lysis buffer (ThermoFisher 89901) supplemented with protease inhibitor (Roche 4693116001) and Phosphatase Cocktail A and B inhibitor (Bimake B15002; Bimake Houston TX) was added to each well, the adherent cells were scratched off, and transferred into pre-cold centrifuge tubes. After vigorous vortex, the tubes were incubated on ice for 30 minutes, centrifuged 14,000 rpm for 10 min at 4° C., and the supernatant were transferred into fresh tubes kept on ice. The protein concentration of the supernatant was determined with bicinchoninic acid method (BCA) (ThermoFisher 23227). Samples were prepared to the final concentration of 30ug in 20ul using NuPAGE LDS Sample Buffer (Invitrogen NP0007), NuPAGE Sample Reducing Agent (Invitrogen NP0009), and RIPA cell lysis buffer, and boiled at 95° C. for 15 minutes in water bath.
The levels of KRAS protein and phosphorylated ERK1/2 were determined by Western blotting. 20 μL of protein sample mixture was loaded into each well of 1.5 mm 4-12% Bis-Tris gel (Invitrogen NP0335), and run at 80V in stacking gel and 120 V in separating gel for about 2 h in MOPS running buffer (Invitrogen NP0001). The gel was transferred to the membrane (20V, 7 min) with Invitrogen iBlot2, and blocked with Li-Cor blocking buffer (LI-COR 927-60001; Li-Cor Biotechnology, Lincoln NE) for at least 1 h at room temperature. Primary antibodies diluted in the blocking buffer were added and incubated at 4° C. overnight. As the primary antibodies, KRAS (Proteintech 12063-1-AP), G12D Mutant Specific KRAS (Cell Signaling Technology 14429S), ERKI1/2 (Cell Signaling Technology 4695S), Phospho-ERKI1/2 (Cell Signaling Technology 4370S), and GAPDH (Millipore MAB374) were used. The membrane was washed 4 times with TBST (0.10% Tween20®; ThermoFisher 28360) for 5 minutes at room temperature, then incubated with Li-Cor anti-rabbit-800 (LI-COR 926-68070) and anti-mouse-680 (LI-COR-926-32211) diluted in Li-Cor blocking buffer with the ratio of 1:15,000 to visualize the primary antibodies for 1 hour at room temperature. Then membrane was washed 4 times with TBST (0.1% Tween20) 5 minutes. The signal intensities of bands were quantified by Li-Cor Odyssey CLX.
The KRas and phosphor-ERK1/2 signals were normalized to the GAPDH signal for each lane and percent of DMSO values were calculated to determine the degradation of KRas and the inhibition of ERK1/2 phosphorylation upon the compound treatment.

With `C[C@H](NC(=O)[C@@H]1C[C@@H](O)CN1C(=O)[C@@H](NC(=O)CCOCCCN1CCC[C@H]1COc1nc(N2CC3CCC(C2)N3)c2cc(C(F)(F)F)c(-c3ccc(F)c4sc(N)c(C#N)c34)c(F)c2n1)C(C)(C)C)c1ccc(-c2c(F)cccc2F)cc1` (single isomer, unassigned) [Example 20] the DC50 (WT KRAS) was 426 nM and the DC50 (KRAS G12D [1]) was 8.2 nM.
In the case of `Cc1ncsc1-c1ccc([C@H](C)NC(=O)[C@@H]2C[C@@H](O)CN2C(=O)[C@@H](NC(=O)CCOCCCN2CCCC2COc2nc(N3CC4CCC(C3)N4)c3cc(Cl)c(-c4ccc(F)c5sc(N)c(C#N)c45)c(F)c3n2)C(C)(C)C)cc1` (stereo partly drawn) [Example 8, (2S,4R)-1-[(2S)-2-[3-[3-[2-[[7-(2-amino-3-cyano-7-fluoro-benzothiophen-4-yl)-6-chloro-4-(3,8-diazabicyclo[3.2.1]octan-3-yl)-8-fluoro-quinazolin-2-yl]oxymethyl]pyrrolidin-1-yl]propoxy]propanoylamino]-3,3-dimethyl-butanoyl]-4-hydroxy-N-[(1S)-1-[4-(4-methylthiazol-5-yl)phenyl]ethyl]pyrrolidine-2-carboxamide], the Dmax (KRAS G12D [2]; ASPC1, AsPc-1 cell line after 24 h treatment) is reported as 95%, the “KRAS G12D degradation (Western blot), result in words” value (KRAS G12D [2]; AsPC-1 cells, FIGS. 1-5) is reported as “Favorable results” and the DC50 (KRAS G12D [2]; AsPc-1 cell line after 24 h treatment) is reported as 71 nM.
